Literature values in US20240131116A1, “METHODS AND THREAPEUTIC COMBINATIONS FOR TREATING IDIOPATHIC INTRACRANIAL HYPERTENSION AND CLUSTER HEADACHES” (NBO PHARMA LLC, priority 2021, published 2024).
Blank lines part the entries; values can stand above or below the compound they belong to.

Assays:
[1] = all patients treated
IIH [2] = system: IIH
IIH [3] = conditions: for most frequent / most common side effects / visual field grades: topiramate 100 to 150 mg daily, acetazolamide 1000 to 1500 mg/day
[4] = human, in vivo
[5] = in vivo

Compound: CC(=O)Nc1nnc(S(N)(=O)=O)s1 [acetazolamide, N-(5-sulfamoyl-1,3,4-thiadiazol-2-yl) acetamide]
patients who discontinued treatment due to adverse events [1]: Up to 20%
vision (perimetric mean deviation, papilledema grade, vision-related quality of life) versus placebo (IIH [2]; maximum tolerated dose of up to 4 g/day): improved vision
adverse events significantly more frequent than in placebo group (IIH [2]; up to 4 g/day): paresthesia, dysgeusia, fatigue, decreased carbon dioxide level, nausea, vomiting, diarrhea, and tinnitus
most frequent / most common side effects (IIH [3]): fatigue and tingling of the hands and feet
visual field grades (IIH [3]): Significant improvement

patients with gastric complaints [4]: about 10%
Compound: NS(=O)(=O)c1ccc(N2CCCCS2(=O)=O)cc1 [sulthiame, p-(tetrahydro-2H-1,2-thiazin-2-yl)benzenesulfonamide, S,S-dioxide]

Compound: CC1(C)O[C@@H]2[C@@H](CO[C@@]3(COS(N)(=O)=O)OC(C)(C)O[C@@H]23)O1 [topiramate, 2,3:4,5-bis-O-(1-methylethylidene)-beta-D-fructopyranose sulfamate]
weight loss, mean (IIH [3]; during 12 months period): 9.75 kg
most frequent / most common side effects (IIH [3]): distal paresthesias, concentration difficulties and weight loss
visual field grades (IIH [3]): Significant improvement

Compound: L-alanyl-glycyl-L-cysteinyl-L-lysyl-L-asparagyl-L-phenylalanyl-L-phenylalanyl-L-tryptophyl-L-lysyl-L-threonyl-L-phenylalanyl-L-threonyl-L-seryl-L-cysteine (3->14)-disulfide [somatostatin]
biological half-life [5]: 2-3 minutes
